Test results as given in patent US5294609A, “DNA gyrase inhibitors and pharmaceutical preparations therefor” (Hoffmann-LaRoche Inc., priority 1991, dated 1994).
Converted amounts (≈) assume the structure as drawn.

Key:
DNA gyrase = target: T1, DNA gyrase (Escherichia coli, UniProt P0AES6); assay: Inhibition of DNA gyrase activity (DNA gyrase supercoiling assay); format: biochemical, E. coli H560; conditions: relaxed PUC18 substrate
T1 construct: supercoiling of relaxed pUC18 plasmid
Method: The inhibition of DNA gyrase activity was measured using a DNA gyrase supercoiling assay according to R. Otter & N. Cozzarelli:Methods in Enzymology, Vol. 100, pp 171-180 (1983). DNA gyrase was isolated from E. coli H560, and relaxed PUC18 plasmed was used as substrate. The activities as regards inhibition of DNA gyrase activity, expressed as maximum non-effective concentration of the test compound (MNC in μg/ml) are compiled in the following Table 4: […]

S. aureus 887 = assay: Antibacterial activity in vitro (MIC, agar dilution); format: cell-based; conditions: Staphylococcus aureus, agar dilution (BB2 + 1% Isovitalex + 7.5% sheep blood + metadione), inoculum 10^4 CFU/spot, read-out: minimum inhibitory concentration (MIC)
Source text: (§1) In the following table there are complied the minimum inhibitory concentrations (MIC; μg/ml) of some representative compounds of formula I against a series of pathogenic microorganisms.
(§2) Agar dilution (BB2 + 1% Isovitalex + 7.5% sheep blood + metadione),
(§3) Inoculum: 10^4 CFU/spot;

B. catarrhalis RA 117 = assay: as above; format: cell-based; conditions: Moraxella catarrhalis, RA117, agar dilution (BB2 + 1% Isovitalex + 7.5% sheep blood + metadione), inoculum 10^4 CFU/spot, read-out: minimum inhibitory concentration (MIC)
Source text: as §1, §2, §3

S. pyogenes 15 = assay: as above; format: cell-based; conditions: Streptococcus pyogenes, agar dilution (BB2 + 1% Isovitalex + 7.5% sheep blood + metadione), inoculum 10^4 CFU/spot, read-out: minimum inhibitory concentration (MIC)
Source text: as §1, §2, §3

S. aureus 25923 = assay: as above; format: cell-based; conditions: Staphylococcus aureus, agar dilution (BB2 + 1% Isovitalex + 7.5% sheep blood + metadione), inoculum 10^4 CFU/spot, read-out: minimum inhibitory concentration (MIC)
Source text: as §1, §2, §3

S. faecalis 6 = assay: as above; format: cell-based; conditions: Enterococcus faecalis, agar dilution (BB2 + 1% Isovitalex + 7.5% sheep blood + metadione), inoculum 10^4 CFU/spot, read-out: minimum inhibitory concentration (MIC)
Source text: as §1, §2, §3

E. coli B = assay: as above; format: cell-based; conditions: Escherichia coli, agar dilution (BB2 + 1% Isovitalex + 7.5% sheep blood + metadione), inoculum 10^4 CFU/spot, read-out: minimum inhibitory concentration (MIC)
Source text: as §1, §2, §3

N. meningitidis 69480 = assay: as above; format: cell-based; conditions: Neisseria meningitidis, agar dilution (BB2 + 1% Isovitalex + 7.5% sheep blood + metadione), inoculum 10^4 CFU/spot, read-out: minimum inhibitory concentration (MIC)
E. coli DC2 = assay: as above; format: cell-based; conditions: Escherichia coli, agar dilution (BB2 + 1% Isovitalex + 7.5% sheep blood + metadione), inoculum 10^4 CFU/spot, read-out: minimum inhibitory concentration (MIC)
strain NR0484 = assay: Streptomycin sensitivity of strain NR0484; format: cell-based, Streptomyces sp. NR0484 (Streptomyces filipinensis); conditions: Streptomyces, ISP medium No. Z (Difco), read-out: Streptomycin sensitivity (M.I.C.)
Method: (§4) The taxonomic studies were done according to the procedure adopted by the International Streptomyces Project (ISP) using the media recommended by Shining, E. B. and D. Gottlieb (Method for characterization of Streptomyces species; Intern. J. Syst. Bact. 16:313-340, 1966) and by Waksman, S. A. (Classification, identification and description of genera and species; in The Actinomycetes Vol. II; The Williams and Wilkins Co., Baltimore, 1961). All cultures were incubated at 27° C. for 15 days. The colour scheme in the Colour Harmony Manual (4th ed., 1958; Container Corporation of America, Chicago) was used to describe the pigmentation of the colonies. Sodium chloride tolerance of the strains and their growth at various temperatures were tested on ISP medium No. 3 (Difco) containing 0.15% yeast extract; and streptomycin sensitivity of the strains were tested on ISP medium No. Z (Difco).

S. filipinensis IFO12860 = assay: Streptomycin sensitivity of S. filipinensis IFO12860; format: cell-based; conditions: Streptomyces filipinensis, IFO12860, read-out: Streptomycin sensitivity (M.I.C.)
Method: as §4

[1] = Physicochemical properties of compound Ia

| SMILES | maximum non-effective concentration of the test compound (MNC) (DNA gyrase) | MIC (S. aureus 887) | MIC (B. catarrhalis RA 117) | MIC (S. pyogenes 15) | MIC (S. aureus 25923) | MIC (S. faecalis 6) | MIC (E. coli B) | MIC (N. meningitidis 69480) | MIC (E. coli DC2) | other results |
| --- | --- | --- | --- | --- | --- | --- | --- | --- | --- | --- |
| COC(=O)[C@@H]1CSCc2c(O)cc(OC)c(C)c2C(=O)OC[C@H](O)C(=O)N1 [Example 41, methyl (4R,7S)-1,3,4,5,6,7,8,10-octahydro-7,14-dihydroxy-12-methoxy-11-methyl-6,10-dioxo-9,2,5-benzoxathiaazacyclododecine-4-carboxylate] | 0.1 µg/mL | 32 µg/mL | 4 µg/mL | 16 µg/mL | 32 µg/mL | 32 µg/mL | 128 µg/mL | 8 µg/mL |  |  |
| COC(=O)N[C@H]1COC(=O)c2c(C)c(OC)cc(O)c2CSC[C@@H](C(=O)OC)NC1=O [Example 137, Methyl (4R,7S)-1,3,4,5,6,7,8,10-octahydro-14-hydroxy-12-methoxy-4-methoxycarbonyl-11-methyl-6,10-dioxo-9,2,5-benzoxathiaazacyclododecine-7-carbamate] | 0.2 µg/mL | 32 µg/mL | 4 µg/mL | 8 µg/mL | 128 µg/mL | 64 µg/mL | 64 µg/mL | 8 µg/mL | 64 µg/mL |  |
| COC(=O)[C@@H]1CSCc2c(O)cc(O)c(C)c2C(=O)OC[C@H](NC(=O)OC(C)(C)C)C(=O)N1 [Example 2, t-butyl (4R,7S)-1,3,4,5,6,7,8,10-octahydro-12,14-dihydroxy-4-methoxycarbonyl-11-methyl-6,10-dioxo-9,2,5-benzoxathiaazacyclododecine-7-carbamate] | 0.1 µg/mL |  |  |  |  |  |  |  |  | maximum non-effective concentration of the test compound (MNC) (DNA gyrase; listed as 13): 0.05 µg/mL |
| CCOC(=O)[C@@H]1CSCc2c(O)cc(OC)c(C)c2C(=O)OC[C@H](NC=O)C(=O)N1 [Example 69, ethyl (4R,7S)-7-formamido-1,3,4,5,6,7,8,10-octahydro-14-hydroxy-12-methoxy-11-methyl-6,10-dioxo-9,2,5-benzoxathiaazacyclododecine-4-carboxylate] | 0.05 µg/mL | 32 µg/mL | 4 µg/mL | 4 µg/mL | 128 µg/mL | 16 µg/mL | 32 µg/mL |  | 16 µg/mL |  |
| COC(=O)[C@@H]1CSCc2c(OC(C)=O)cc(OC(C)=O)c(C)c2C(=O)OC[C@H](N)C(=O)N1 [Example 5, methyl (4R,7S)-12,14-diacetoxy-7-amino-1,3,4,5,6,7,8,10-octahydro-11-methyl-6,10-dioxo-9,2,5-benzoxathiaazacyclododecine-4-carboxylate] | 10 µg/mL |  |  |  |  |  |  |  |  |  |
| [H]/N=C(/N)N[C@H]1[C@H](O)[C@@H](O)[C@H](O[C@@H]2O[C@@H](C)[C@](O)(C=O)[C@H]2O[C@@H]2O[C@@H](CO)[C@H](O)[C@@H](O)[C@@H]2NC)[C@@H](N/C(N)=N\[H])[C@@H]1O [Streptomycin] |  |  |  |  |  |  |  |  |  | MIC (strain NR0484): 6300 µg/mL (≈ 10.8 mM); MIC (S. filipinensis IFO12860): 6300 µg/mL (≈ 10.8 mM) |
| CO/N=C(\C(=O)N[C@H]1COC(=O)c2c(C)c(OC(C)=O)cc(OC(C)=O)c2CSC[C@@H](C(=O)OC)NC1=O)c1csc(N)n1 [Example 10, methyl (4R,7S)-12,14-diacetoxy-7-[(Z)-2-(2-amino-4-thiazolyl) -2-(methoxyimino)acetamido]-1,3,4,5,6,7,8,10-octahydro-11-methyl-6,10-dioxo-9,2,5-benzoxathiaazacyclododecine-4-carboxylate] | 10 µg/mL |  |  |  |  |  |  |  |  |  |
| COC(=O)[C@@H]1CSCc2c(O)cc(OC)cc2C(=O)OCCC(=S)N1 [Example 101, methyl (4R)-1,3,4,5,6,7,8,10-octahydro-14-hydroxy-12-methoxy-10-oxo-6-thioxo-9,2,5-benzoxathiaazacyclododecine-4-carboxylate] | 0.1 µg/mL | 16 µg/mL | 4 µg/mL | 16 µg/mL | 16 µg/mL | 32 µg/mL | 64 µg/mL | 8 µg/mL | 64 µg/mL |  |
| CCOC(=O)[C@@H]1CSCc2c(O)cc(OC)c(C)c2C(=O)OC[C@H](NC(C)=S)C(=O)N1 [Example 102, ethyl (4R,7S)-1,3,4,5,6,7,8,10-octahydro-14-hydroxy-12-methoxy-11-methyl-6,10-dioxo-7-thioacetamido-9,2,5-benzoxathiaazacyclododecine-4-carboxylate] | 0.25 µg/mL | 8 µg/mL | 2 µg/mL | 8 µg/mL | 16 µg/mL | 16 µg/mL | 64 µg/mL | 2 µg/mL | 64 µg/mL |  |
| COC(=O)[C@@H]1CSCc2c(O)cc(O)c(C)c2C(=O)OC[C@H](N)C(=O)N1 [Example 6, methyl (4R,7S)-7-amino-1,3,4,5,6,7,8,10-octahydro-12,14-dihydro-11-methyl-6,10-dioxo-9,2,5-benzoxathiaazacyclododecine-4-carboxylate] | 2 µg/mL |  |  |  |  |  |  |  |  |  |
| Cc1c(O)cc(O)c2c1C(=O)OC[C@H](N)C(=O)N[C@H](C(=O)O)CSC2 [Example 4, (4R,7S)-7-amino-1,3,4,5,6,7,8,10-octahydro-12,14-dihydro-11-methyl-6,10-dioxo-9,2,5-benzoxathiaazacyclododecine-4-carboxylic acid] | 1 µg/mL |  |  |  |  |  |  |  |  |  |
| Cc1c(O)cc(O)c2c1C(=O)OC[C@H](N)C(=O)NCCSC2 [Example 9, (S)-7-amino-4,5,7,8-tetrahydro-12,14-dihydroxy-11-methyl-9,2,5-benzoxathiaazacyclododecine-6,10(1H,3H)-dione] | 1 µg/mL |  |  |  |  |  |  |  |  |  |
| C=CCNC(=O)[C@@H]1CSCc2c(O)cc(OC)c(C)c2C(=O)OC[C@H](NC(=O)OC(C)(C)C)C(=O)N1 [Example 84, (4R,7S)-7-tert-butoxycarbonylamino-1,3,4,5,6,7,8,10-octahydro-14-hydroxy-l2-methoxy-11-methyl-6,10-dioxo-9,2,5-benzoxathiaazacyclododecine-4-carboxylic acid allylamide] | 0.1 µg/mL | 16 µg/mL | 4 µg/mL | 16 µg/mL | 32 µg/mL | 32 µg/mL | > 128 µg/mL | 4 µg/mL | > 128 µg/mL |  |
| Cc1c(O)cc(O)c2c1C(=O)OC[C@H](NC(=O)OC(C)(C)C)C(=O)N[C@H](C(=O)O)CSC2 [Example 3, (4R,7S)-7-(L-t-butoxyformamido)-1,3,4,5,6,7,8,10-octahydro-12,14-dihydroxy-11-methyl-6,10-dioxo-9,2,5-benzoxathiaazacyclododecine-4-carboxylic acid] | 5 µg/mL |  |  |  |  |  |  |  |  |  |
| Cc1c(O)cc(O)c2c1C(=O)OC[C@H](NC(=O)[C@@H]1[C@H](O)CCN1C(=O)[C@@H](N)CO)C(=O)N[C@H](C(=O)N[C@@H](C)C(=O)O)CSC2 [Example 12, N-[[(4R,7S)-1,3,4,5,6,7 8,10-octahydro-12,14-dihydroxy-7-[[(3R)-3-hydroxy-1-L-seryl-L-prolyl]amino]-11-methyl-6,10-dioxo-9,2,5-benzoxathiaazacyclododecin-4-yl]carbonyl]-L-alanine] | 5 µg/mL |  |  |  |  |  |  |  |  | solubility (in words) [1]: water soluble |
